Literature values, collected in patent publication US20070072813A1, “Methods for preventing and treating metabolic disorders and new pyrazole-O-glycoside derivatives” (priority 2005, published 2007).

Conditions: metformin on its own, in the diabetic

CN(C)C(=N)N=C(N)N [metformin]
average improvement in the HbA1c value: 1.0-1.5%
